The values below are quoted from earlier work in paper PMC4007625, “A phase I study of AST1306, a novel irreversible EGFR and HER2 kinase inhibitor, in patients with advanced solid tumors” (Journal of Hematology & Oncology, 2014).

The structures appear in SMILES notation.

In this data set the test system is advanced/metastatic gastric cancer. Details: method as in PMID 21415234. The following applies: single agent, advanced/metastatic gastric cancer patients; cited from earlier work.

In the case of `CS(=O)(=O)CCNCc1ccc(-c2ccc3ncnc(Nc4ccc(OCc5cccc(F)c5)c(Cl)c4)c3c2)o1` [lapatinib], the response rate is given as 9%.
